{"source": "paper PMC4319993", "about": "(Nature, 2014)", "key": {"R. palustris LCC (RpLCC)": {"system": "R. palustris LCC (RpLCC)", "assay": "coupled ATPase assay", "type": "biochemical, Rhodopseudomonas palustris", "details": "1.5 mM ATP, 40 mM KHCO3, 10 mM MgCl2, 200 mM KCl, 100 mM Hepes pH 7.5; 0.25 uM enzyme"}, "[1]": {"target": "Mycobacterium avium subspecies paratuberculosis long-chain acyl-CoA carboxylase (Mycobacterium avium subspecies paratuberculosis)", "assay": "crystal structure"}, "[2]": {"target": "Mycobacterium avium subspecies paratuberculosis long-chain acyl-CoA carboxylase (Mycobacterium avium subspecies paratuberculosis)", "assay": "SEC"}, "[3]": {"target": "Mycobacterium avium subspecies paratuberculosis long-chain acyl-CoA carboxylase (Mycobacterium avium subspecies paratuberculosis)", "assay": "crystal structure", "remark": "listed apart in the source"}, "[4]": {"target": "Rhodopseudomonas palustris long-chain acyl-CoA carboxylase (Rhodopseudomonas palustris)", "assay": "SEC"}}}
{"compound": "CC(=O)SCCNC(=O)CCNC(=O)[C@H](O)C(C)(C)COP(=O)(O)OP(=O)(O)OC[C@H]1O[C@@H](n2cnc3c(N)ncnc32)[C@H](O)[C@@H]1OP(=O)(O)O", "note": "[Acetyl-CoA]", "values": [{"measurement": "Km", "setting": "R. palustris LCC (RpLCC)", "result": "2000 ± 300", "unit": "µM"}]}
{"compound": "CCCC(=O)SCCNC(=O)CCNC(=O)[C@H](O)C(C)(C)COP(=O)(O)OP(=O)(O)OC[C@H]1O[C@@H](n2cnc3c(N)ncnc32)[C@H](O)[C@@H]1OP(=O)(O)O", "note": "[Butyryl-CoA]", "values": [{"measurement": "Km", "setting": "R. palustris LCC (RpLCC)", "result": "820 ± 160", "unit": "µM"}]}
{"compound": "CCCCCCCCCC(=O)SCCNC(=O)CCNC(=O)[C@H](O)C(C)(C)COP(=O)(O)OP(=O)(O)OC[C@H]1O[C@@H](n2cnc3c(N)ncnc32)[C@H](O)[C@@H]1OP(=O)(O)O", "note": "[Decanoyl-CoA]", "values": [{"measurement": "Km", "setting": "R. palustris LCC (RpLCC)", "result": "33 ± 5", "unit": "µM"}]}
{"compound": "CCCCCC(=O)SCCNC(=O)CCNC(=O)[C@H](O)C(C)(C)COP(=O)(O)OP(=O)(O)OC[C@H]1O[C@@H](n2cnc3c(N)ncnc32)[C@H](O)[C@@H]1OP(=O)(O)O", "note": "[Hexanoyl-CoA]", "values": [{"measurement": "Km", "setting": "R. palustris LCC (RpLCC)", "result": "200 ± 40", "unit": "µM"}]}
{"compound": "CCCCCCCCCCCC(=O)SCCNC(=O)CCNC(=O)[C@H](O)C(C)(C)COP(=O)(O)OP(=O)(O)OC[C@H]1O[C@@H](n2cnc3c(N)ncnc32)[C@H](O)[C@@H]1OP(=O)(O)O", "note": "[Lauroyl-CoA]", "values": [{"measurement": "Km", "setting": "R. palustris LCC (RpLCC)", "result": "19 ± 3", "unit": "µM"}]}
{"compound": "CCCCCCCCCCCCCC(=O)SCCNC(=O)CCNC(=O)[C@H](O)C(C)(C)COP(=O)(O)OP(=O)(O)OC[C@H]1O[C@@H](n2cnc3c(N)ncnc32)[C@H](O)[C@@H]1OP(=O)(O)O", "note": "[Myristoyl-CoA]", "values": [{"measurement": "Km", "setting": "R. palustris LCC (RpLCC)", "result": "26 ± 2", "unit": "µM"}]}
{"compound": "CCCCCCCC(=O)SCCNC(=O)CCNC(=O)[C@H](O)C(C)(C)COP(=O)(O)OP(=O)(O)OC[C@H]1O[C@@H](n2cnc3c(N)ncnc32)[C@H](O)[C@@H]1OP(=O)(O)O", "note": "[Octanoyl-CoA]", "values": [{"measurement": "Km", "setting": "R. palustris LCC (RpLCC)", "result": "370 ± 60", "unit": "µM"}]}
{"compound": "CCCCCCCCCCCCCCCC(=O)SCCNC(=O)CCNC(=O)[C@H](O)C(C)(C)COP(=O)(O)OP(=O)(O)OC[C@H]1O[C@@H](n2cnc3c(N)ncnc32)[C@H](O)[C@@H]1OP(=O)(O)O", "note": "[Palmitoyl-CoA]", "values": [{"measurement": "Km", "setting": "R. palustris LCC (RpLCC)", "result": "5.8 ± 0.5", "unit": "µM"}]}
{"compound": "CCC(=O)SCCNC(=O)CCNC(=O)[C@H](O)C(C)(C)COP(=O)(O)OP(=O)(O)OC[C@H]1O[C@@H](n2cnc3c(N)ncnc32)[C@H](O)[C@@H]1OP(=O)(O)O", "note": "[Propionyl-CoA]", "values": [{"measurement": "Km", "setting": "R. palustris LCC (RpLCC)", "result": "2200 ± 500", "unit": "µM"}]}
{"compound": "Mycobacterium avium subspecies paratuberculosis long-chain acyl-CoA carboxylase (enzyme)", "values": [{"measurement": "stoichiometry N", "setting": "[1]", "result": 6}, {"measurement": "stoichiometry N", "setting": "[2]", "result": 6}, {"measurement": "stoichiometry N", "setting": "[3]", "result": 6}]}
{"compound": "Rhodopseudomonas palustris long-chain acyl-CoA carboxylase (enzyme)", "values": [{"measurement": "stoichiometry N", "setting": "[4]", "result": 6}]}
